From article PMC5501398 (PLoS ONE, 2017)

Target: T1, VcIIPK (Vibrio cholerae, UniProt Q9KQJ0)
T1 construct: gene VC_2008
Assay: biochemical

T1 sequence (Q9KQJ0 1-481 limits assumed): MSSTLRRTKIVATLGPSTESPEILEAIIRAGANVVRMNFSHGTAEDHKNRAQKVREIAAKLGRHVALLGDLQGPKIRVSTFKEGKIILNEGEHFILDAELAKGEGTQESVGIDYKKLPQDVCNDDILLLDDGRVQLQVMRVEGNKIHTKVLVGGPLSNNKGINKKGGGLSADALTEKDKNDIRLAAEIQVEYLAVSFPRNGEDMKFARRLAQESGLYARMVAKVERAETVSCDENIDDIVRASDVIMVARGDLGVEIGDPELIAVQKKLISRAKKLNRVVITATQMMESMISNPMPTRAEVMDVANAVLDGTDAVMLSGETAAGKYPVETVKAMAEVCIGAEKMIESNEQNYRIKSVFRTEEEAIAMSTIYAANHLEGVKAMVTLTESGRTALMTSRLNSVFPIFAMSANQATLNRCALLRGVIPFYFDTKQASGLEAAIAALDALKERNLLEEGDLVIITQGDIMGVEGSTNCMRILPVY

O=C(O)C(=O)O [oxalate]
Ki: 71 ± 6 µM
